Assay results: ChEMBL document CHEMBL3045210, “Inhibition of trans-Cinnamate 4-Hydroxylase by 4-Amino-5-aryl-2,3-dihydro-3H-1,2,4-triazole-3-thiones” (J Pestic Sci, 2005)
Activity calls are given as the source filed them. The calls are words filed in the database; no cut-off is given here.

Assays:
[1] = biological target: T1, Trans-cinnamate 4-monooxygenase (Populus kitakamiensis, UniProt Q43054); test: Inhibition of Populus sieboldii x Populus grandidentata trans-cinnamate 4-hydroxylase assessed as p-coumaric acid level
T1 sequence (Q43054 whole entry): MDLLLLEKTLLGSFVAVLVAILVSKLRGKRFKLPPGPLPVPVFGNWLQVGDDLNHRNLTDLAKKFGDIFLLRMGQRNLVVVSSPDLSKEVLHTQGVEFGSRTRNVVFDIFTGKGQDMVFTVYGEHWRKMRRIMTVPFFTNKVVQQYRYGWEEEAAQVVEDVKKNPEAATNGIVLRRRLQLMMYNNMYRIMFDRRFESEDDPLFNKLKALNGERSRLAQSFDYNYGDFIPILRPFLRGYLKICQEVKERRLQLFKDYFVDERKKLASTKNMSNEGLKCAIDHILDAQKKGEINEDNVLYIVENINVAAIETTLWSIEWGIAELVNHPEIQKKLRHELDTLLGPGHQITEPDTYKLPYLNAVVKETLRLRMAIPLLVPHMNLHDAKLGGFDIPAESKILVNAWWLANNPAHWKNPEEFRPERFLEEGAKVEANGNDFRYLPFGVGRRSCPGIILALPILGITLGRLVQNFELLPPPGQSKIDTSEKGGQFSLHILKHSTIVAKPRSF

[2] = biological target: T2, Trans-cinnamate 4-monooxygenase (Populus kitakamiensis) (UniProt Q43054); test: Mixed-type inhibition of Populus sieboldii x Populus grandidentata trans-cinnamate 4-hydroxylase by Lineweaver-Burk plot analysis
T2 sequence (whole entry): T1 sequence (Q43054 whole entry)

Solanum tuberosum = test: Induction of accumulation of trans-cinnamic acid in Solanum tuberosum (potato) tubers at 0.02 to 20 ng/disk after 24 hr relative to laminarin; type: functional

Row | IC50 [1] | SMILES | inhibition [2] | fold change (FC) (Solanum tuberosum)
1 | 3.6 µM | Cc1cccc(-c2n[nH]c(=S)n2N)c1 |  | 
2 | 5 µM | Nn1c(-c2cccc(Cl)c2)n[nH]c1=S |  | 
3 | 3.9 µM | Nn1c(-c2cccc(F)c2)n[nH]c1=S |  | 
4 | > 100 µM | Nn1c(-c2ccccc2Cl)n[nH]c1=S |  | 
5 | > 100 µM | Nn1c(-c2ccc(Cl)cc2)n[nH]c1=S |  | 
6 | 51 µM | Nn1c(-c2cccnc2)n[nH]c1=S |  | 
7 | > 100 µM | Nn1c(S)nnc1-c1ccco1 |  | 
8 | 13 µM | Nn1c(-c2ccncc2)n[nH]c1=S |  | 
9 | 45 µM | Nn1c(-c2ccccn2)n[nH]c1=S |  | 
10 | > 100 µM | Cc1ccc(-c2n[nH]c(=S)n2N)cc1 |  | 
11 | 45 µM | Nn1c(-c2cccs2)n[nH]c1=S |  | 
12 | > 100 µM | Nn1c(-c2ccc(O)cc2)n[nH]c1=S |  | 

Row | SMILES | IC50 [1] | inhibition [2] | fold change (FC) (Solanum tuberosum)
13 | Nn1c(S)nnc1-c1ccccc1 | 0.32 µM | Active | 3
